Experimental data reported in PMC5361737, “Potent and Selective KDM5 Inhibitor Stops Cellular Demethylation of H3K4me3 at Transcription Start Sites and Proliferation of MM1S Myeloma Cells” (Cell Chemical Biology, 2017).

Legend:
[1] = tested on: KDM5A-D; assay: Biochemical inhibition of the KDM5 sub-family in vitro
[2] = biological target: A2A (h) (Homo sapiens, UniProt P29274); assay: Cerep Express Panel, agonist radioligand; type: binding; conditions: read-out: % Inhibition of reference (10 µM)
[3] = biological target: delta 2 (DOP) (h) (Homo sapiens, UniProt P41143); assay: Cerep Express Panel, agonist radioligand; type: binding; conditions: read-out: % Inhibition of reference (10 µM)
[4] = tested on: Ca2+ channel (L, verapamil site) (phenylalkylamine); assay: Cerep Express Panel, antagonist radioligand; type: binding

A2A (h), sequence (P29274 whole entry): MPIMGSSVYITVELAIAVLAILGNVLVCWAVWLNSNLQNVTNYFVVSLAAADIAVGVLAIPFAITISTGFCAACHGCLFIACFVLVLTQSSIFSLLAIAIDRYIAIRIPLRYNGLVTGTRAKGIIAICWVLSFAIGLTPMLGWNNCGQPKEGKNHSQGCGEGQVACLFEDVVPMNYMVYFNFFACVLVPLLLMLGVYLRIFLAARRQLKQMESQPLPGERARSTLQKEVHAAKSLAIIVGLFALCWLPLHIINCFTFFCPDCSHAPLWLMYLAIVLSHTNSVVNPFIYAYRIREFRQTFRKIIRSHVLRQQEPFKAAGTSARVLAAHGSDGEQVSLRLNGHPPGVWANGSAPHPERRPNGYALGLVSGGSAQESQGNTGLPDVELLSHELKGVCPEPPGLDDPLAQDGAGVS
delta 2 (DOP) (h), sequence (P41143 whole entry): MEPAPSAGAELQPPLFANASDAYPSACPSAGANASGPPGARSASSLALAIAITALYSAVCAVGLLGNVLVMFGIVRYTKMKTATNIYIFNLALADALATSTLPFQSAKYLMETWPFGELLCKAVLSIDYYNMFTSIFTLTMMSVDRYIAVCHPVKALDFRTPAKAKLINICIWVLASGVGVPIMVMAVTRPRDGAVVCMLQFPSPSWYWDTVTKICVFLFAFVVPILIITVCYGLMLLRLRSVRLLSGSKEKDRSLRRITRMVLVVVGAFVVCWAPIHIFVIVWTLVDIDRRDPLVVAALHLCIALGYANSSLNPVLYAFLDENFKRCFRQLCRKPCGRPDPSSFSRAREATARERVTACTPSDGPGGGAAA

CCN(CCN(C)C)C(=O)CNCc1cc(C(N)=O)ccn1 [KDOAM-25]
IC50 [1]: < 100 nM
inhibition at 10 µM [2]: -2%
inhibition at 10 µM [3]: 2%
% Inhibition of reference (10 µM) [4]: -1%
